In paper PMC9229843, “Cancer-Related Somatic Mutations in Transmembrane Helices Alter Adenosine A1 Receptor Pharmacology” (Molecules, 2022):
Positions count from the first letter of the chain named.

Experiments:
wild type hA1AR = target: T1, wild type hA1AR (Homo sapiens, UniProt P30542); conditions: [35S]GTPγS; ratio over basal activity of wild type hA1AR
T1 sequence (P30542 1-326): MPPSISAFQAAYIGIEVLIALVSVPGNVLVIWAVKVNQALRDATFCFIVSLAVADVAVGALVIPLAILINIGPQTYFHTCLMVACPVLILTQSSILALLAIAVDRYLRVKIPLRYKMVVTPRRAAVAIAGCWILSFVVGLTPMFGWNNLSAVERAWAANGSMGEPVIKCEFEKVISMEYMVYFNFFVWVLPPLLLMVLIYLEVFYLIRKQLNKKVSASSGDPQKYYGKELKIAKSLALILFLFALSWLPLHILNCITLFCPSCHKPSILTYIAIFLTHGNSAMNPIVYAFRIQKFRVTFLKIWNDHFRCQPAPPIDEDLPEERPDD
Procedure: (§1) Transient transfection of CHO cells with wild type or mutated hA1AR plasmid constructs was performed using a polyethylenimine (PEI) method. Cells were seeded in 10-cm culture dishes to achieve 50–60% confluency 24 h prior to transfection. On the day of transfection, cells were transfected with a PEI: DNA ratio of 3:1 and a plasmid DNA amount of 10 μg/dish. Moreover, 24 h post-transfection, the medium was refreshed, and 48 h after transfection, cells were collected and membranes were prepared as previously described. Membranes were aliquoted in 250 or 100 μL and stored at −80 °C. Membrane protein concentrations were determined using the BCA method.
(§2) [^35S]GTPγS binding assays were adapted from a previously published method. […] Then, 20 µL of [^35S]GTPγS (final concentration of 0.3 nM) was added to each well, followed by 90 min of incubation at 25 °C. Incubations were terminated and filter-bound radioactivity was measured as described above.
(§3) All experimental data were analyzed by GraphPad Prism 7.0 or 8.0 (GraphPad Software Inc., San Diego, CA, USA). Data from yeast liquid growth and [^35S]GTPγS binding assays were analyzed by non-linear regression using “log (agonist) vs. response (three parameters)” or “log (inhibitor) vs. response (three parameters)” to obtain potency (EC50), inhibitory potency (IC50), and efficacy (Emax or Imax) values. The radioligand displacement curves were obtained from a statistically preferred one-site or two-site binding model. pKi values were calculated from pIC50 values using the Cheng–Prusoff equation, where KD values were obtained from the homologous competition assays from this study and calculated by non-linear regression using “one site–homologous” [62].

hA1AR G279S^7.44 = target: T2, hA1AR G279S^7.44 (Homo sapiens, UniProt P30542, G279S); conditions: [35S]GTPγS; ratio over basal activity of wild type hA1AR
T2 sequence (P30542 1-326 G279S): T1 sequence (P30542 1-326) with G279S
Procedure: as §1, §2, §3

hA1AR T257P^6.58 = target: T3, hA1AR T257P^6.58 (Homo sapiens, UniProt P30542, T257P); test: yeast liquid growth assay; assay type: cell-based; conditions: result in words
T3 construct: expressed in transfected cells; host or cells: S. cerevisiae MMY24
T3 sequence (P30542 1-326 T257P): T1 sequence (P30542 1-326) with T257P

hA1AR P86L^3.31 = target: T4, hA1AR P86L^3.31 (Homo sapiens, UniProt P30542, P86L); test: yeast liquid growth assay; assay type: cell-based; conditions: result in words
T4 construct: expressed in transfected cells; host or cells: S. cerevisiae MMY24
T4 sequence (P30542 1-326 P86L): T1 sequence (P30542 1-326) with P86L

OC[C@H]1O[C@@H](n2cnc3c(NC4CCCC4)ncnc32)[C@H](O)[C@@H]1O [CPA, N^6-cyclopentyladenosine]
Emax (wild type hA1AR): 1.48 ± 0.13
Emax (hA1AR G279S^7.44): 1.57 ± 0.20
agonist-induced receptor activation (hA1AR T257P^6.58): could not be activated
agonist-induced receptor activation (hA1AR P86L^3.31): could not be activated
